Laboratory results published in patent US8247211B2, “Glycopeptide antibiotics” (American Cyanamid Company, priority 2001, dated 2012).

Assays:
[1] = system: Staphylococcus aureus-SMITH (GC 4543); assay: Acute lethal infection in mice (ED50); assay type: in vivo; conditions: female CD-1 mice, intraperitoneal challenge, intravenous dose 30 min. after infection, 7 day survival ratios
How it was run: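 Bacteria suspended in Trypticase Soy Broth or hog gastric mucin are injected intraperitoneally into female CD-1 mice at a dose killing untreated animals within 24-48 hr. Thirty minutes later, test agent is administered intravenously. Survival at day 7 is scored.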

Enterococcus sp. = assay: In vitro antibacterial evaluation: minimum inhibitory concentration (MIC), broth dilution method; assay type: cell-based
How it was run: (§1)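 Using Muller-Hinton II […] and an inoculum of 5×10^5 CFU/mL, antibiotic dilutions from 64 down to 0.06 μg/mL were tested following NCCLS M7-A2. The MIC is the lowest concentration inhibiting growth, including in methicillin-, penicillin- or vancomycin-resistant clinical isolates.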

Staphylococcus sp. = assay: as above; assay type: cell-based; conditions: broth dilution, 18 hours at 35° C.
How it was run: as §1

Escherichia coli = assay: as above; assay type: cell-based
How it was run: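 Susceptibility determined by NCCLS-recommended broth dilution (M7-A2), Muller-Hinton II […]. Concentration span 64-0.06 μg/mL, inoculum 5×10^5 CFU/mL. Isolates include strains resistant to methicillin, penicillin and/or vancomycin.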

Streptococcus sp. = assay: as above; assay type: cell-based; conditions: strain GC 4564
How it was run: as §1

CC(c1ccccc1)C1NC(=O)CNC(=O)C(CO)NC(=O)C(C(O)C2CNC(=N)N2C2OC(CO)C(O)C(O)C2O)NC(=O)C(C(O)C2CNC(=N)N2)NC(=O)C(Cc2ccc(OC3OC(CO)C(OC4OC5COC(c6ccc7c(c6)OCO7)OC5C(O)C4O)C(O)C3O)cc2)NC1=O (stereo not drawn) [Example 143, Cyclo[glycyl-β-methylphenylalanyl-O-[4-O-[4,6-O-(1,3-benzodioxol-5-ylmethylene)hexopyranosyl]hexopyranosyl]tyrosyl-3-(2-iminoimidazolidin-4-yl)seryl-3-(3-hexopyranosyl-2-iminoimidazolidin-4-yl)serylseryl]]
>64 µg/mL: MIC Escherichia coli (ATCC 25922) (Escherichia coli; strain ATCC 25922)
1 µg/mL: MIC Coagulase Negative Staphylococcus (GC 4549) (Staphylococcus sp.; 5×10^5 CFU/mL) | MIC Coagulase Negative Staphylococcus (GC 4549) (Staphylococcus sp.; strain GC 4549)
0.5 to 2 µg/mL: MIC Staphylococcus haemolyticus (GC 4546) (Staphylococcus sp.; 5×10^5 CFU/mL) | MIC Staphylococcus haemolyticus (GC 4546) (Staphylococcus sp.; strain GC 4546)
0.5 to 1 µg/mL: MIC Streptococcus agalactiae (GC 4564) (Streptococcus sp.)
64 µg/mL: MIC Escherichia coli (GC 4559) (Escherichia coli; strain GC 4559)
4 to 8 µg/mL: MIC Staphylococcus aureus (GC 3053) (Staphylococcus sp.; 5×10^5 CFU/mL) | MIC Staphylococcus aureus (GC 3053) (Staphylococcus sp.; strain GC 3053)
2 to 8 µg/mL: MIC Enterococcus faecium (GC 4557) (Enterococcus sp.; strain GC 4557) | MIC Staphylococcus aureus (GC 4544) (Staphylococcus sp.; 5×10^5 CFU/mL) | MIC Staphylococcus aureus (GC 4544) (Staphylococcus sp.; strain GC 4544)
0.28 mg/kg: median effective dose (ED50), Staphylococcus aureus-SMITH (GC 4543) [1]
1 to 2 µg/mL: MIC Coagulase Negative Staphylococcus (GC 4547) (Staphylococcus sp.; 5×10^5 CFU/mL) | MIC Coagulase Negative Staphylococcus (GC 4548) (Staphylococcus sp.; 5×10^5 CFU/mL) | MIC Coagulase Negative Staphylococcus (GC 6257) (Staphylococcus sp.; 5×10^5 CFU/mL) | MIC Coagulase Negative Staphylococcus (GC 4547) (Staphylococcus sp.; strain GC 4547) | MIC Coagulase Negative Staphylococcus (GC 4548) (Staphylococcus sp.; strain GC 4548) | MIC Coagulase Negative Staphylococcus (GC 6257) (Staphylococcus sp.; strain GC 6257) | MIC Escherichi coli (GC 4560) (Escherichia coli; strain GC 4560)
2 to 4 µg/mL: MIC Coagulase Negative Staphylococcus (GC 4551) (Staphylococcus sp.; 5×10^5 CFU/mL) | MIC Staphylococcus aureus (ATCC 29213) (Staphylococcus sp.; 5×10^5 CFU/mL) | MIC Staphylococcus aureus (GC 1131) (Staphylococcus sp.; 5×10^5 CFU/mL) | MIC Staphylococcus aureus (GC 3051) (Staphylococcus sp.; 5×10^5 CFU/mL) | MIC Staphylococcus aureus (GC 4541) (Staphylococcus sp.; 5×10^5 CFU/mL) | MIC Staphylococcus aureus (GC 4545) (Staphylococcus sp.; 5×10^5 CFU/mL) | MIC Staphylococcus aureus-SMITH (GC 4543) (Staphylococcus sp.; 5×10^5 CFU/mL) | MIC Staphylococcus aureus (ATCC 29213) (Staphylococcus sp.; strain ATCC 29213) | MIC Staphylococcus aureus (GC 1131) (Staphylococcus sp.; strain GC 1131) | MIC Staphylococcus aureus (GC 3051) (Staphylococcus sp.; strain GC 3051) | MIC Staphylococcus aureus (GC 4541) (Staphylococcus sp.; strain GC 4541) | MIC Staphylococcus aureus-SMITH (GC 4543) (Staphylococcus sp.; strain GC 4543) | MIC Staphylococcus aureus (GC 4545) (Staphylococcus sp.; strain GC 4545) | MIC Coagulase Negative Staphylococcus (GC 4551) (Staphylococcus sp.; strain GC 4551)
1 to 4 µg/mL: MIC Staphylococcus aureus (GC 4542) (Staphylococcus sp.; 5×10^5 CFU/mL) | MIC Staphylococcus aureus (GC 4542) (Staphylococcus sp.; strain GC 4542)
8 µg/mL: MIC Enterococcus faecalis (GC 2691) (Enterococcus sp.; strain GC 2691)
